pIC50: −log10 of the molar value. Counter-ions that a name gives are not always drawn.

Experiment [1] has as its system M21 human melanoma cells (αv β3-dependent adhesion). In words: M21 Melanoma Cell Adhesion Assay: αv β3-dependent adhesion to human fibrinogen. It counts as cell-based. The settings on record: 0.5 h, 200 μM Mn++, 30 minutes, 37° C. How it is done:
M21 Melanoma Cell Adhesion Assasy
This assay involves an αv β3 -dependent adhesion of M21 human melanoma cells to human fibrinogen-coated plastic tissue culture dishes.
Fibrinogen was purified from human plasma. Fibronectin and plasminogen were eliminated from the preparation by passing the sample over gelatin-sepharose 4B and lysine-sepharose 4B resins, respectively. The fibrinogen is diluted to 10 μg/mL in coating buffer (20 mM Tris-HCl, 150 mM NaCl, pH 7.4). 100 μL of diluted fibrinogen is added to each well of a 96-well Immulon 2 microtiter plate (Dynatech; Chantilly, Va.) and allowed to coat overnight at 4° C. […]
M21 human melanoma cells were provided by Dr. J. Smith, La Jolla Cancer Research Institute. […] Cells are counted and suspended to a density of 2×10^6 /mL in adhesion assay buffer containing 200 μM Mn^++. […]
Following adhesion, plates are gently washed 3 times with 200 μL of wash buffer (50 mM Tris-HCl, 150 mM NaCl, pH 7.4) using large bore pipet tips. Plates are briefly blotted dry and 100 μL of cell lysis buffer (50 mM sodium acetate, pH 5.0, 0.5% Triton X-100, 0.3 mg/mL p-nitrophenyl phosphate [Sigma] is added to each well. Plates are incubated for 60 minutes at 37° C. and 50 μL of 1N NaOH is added to stop the reaction. The absorbance of the wells at […] is read using an automatic plate reader.

Experiment [2] deals with T1, human vitronectin receptor (αv β3) (Homo sapiens, UniProt P05106+P06756).
T1 construct: Human vitronectin receptor(αv β3) was purified from human placenta; from tissue; host or cells: human placenta
The experiment can be described thus: Solid Phase Receptor Assay: purified vitronectin receptor (αv β3), competition with biotinylated vitronectin. As to conditions: 1 nM biotinylated vitronectin, read-out: VnR/IC50. Format: binding. How it is done:
Human vitronectin receptor(αv β3) was purified from human placenta as previously described [Pytela et al., Methods in Enzymology, 144:475-489 (1987)]. Human vitronectin was purified from fresh frozen plasma as previously described [Yatohgo et al., Cell Structure and Function, 13:281-292 (1988)]. Biotinylated human vitronectin was prepared by coupling NHS-biotin from Pierce Chemical Company (Rockford, Ill.) to purified vitronectin as previously described [Charo et al., J. Biol. Chem., 266(3):1415-1421 (1991)]. Assay buffer, OPD substrate tablets, and RIA grade BSA were obtained from Sigma (St. Louis, Mo.). Anti-biotin antibody was obtained from Calbiochem (La Jolla, Calif.). GRGDSP peptide was purchased from Bachem (Torrance, Calif.). Linbro microtiter plates were obtained from Flow Labs (McLean, Va.). ADP reagent was obtained from Sigma (St. Louis, Mo.).
Solid Phase Receptor Assays
This assay was essentially the same as previously reported [Niiya et al., Blood, 70:475-483 (1987)]. […] The plate was read with a microtiter plate reader at a wavelength of 450 nm and when the maximum-binding control wells reached an absorbance of about 1.0, the final A450 were recorded for analysis. The data were analyzed using a macro written for use with the EXCEL™ spreadsheet program. The mean, standard deviation, and %CV were determined for duplicate concentrations. […]

A further experiment concerns A3827 cells. The experiment can be described thus: Cell Adhesion Assay: adhesion of A3827 cells to fibrinogen. Format: cell-based. The settings on record: 300 μM MnCl2, 1 hour, 37° C. How it is done:
Fibrinogen was purified from human plasma. Fibronectin and plasminogen were eliminated from the preparation by passing the sample over gelatin-sepharose 4B and lysine-sepharose 4B resins, respectively. The fibrinogen was resuspended at a concentration of 10 μg/mL in 100 mM sodium bicarbonate, pH 9.0. Immulon II (Nunc) microtiter plates were coated by incubating with 100 μL/well of fibrinogen solution overnight at 4° C. After coating with fibrinogen, plates were rinsed three times with phosphate buffered saline (PBS) and 100 μL of a 1% bovine serum albumin (BSA) solution was added to each well and stored at -20° C. until needed. A3827 cells were harvested from subconfluent 75 cm^2 culture flasks with 2 mM EDTA in PBS and resuspended at 5×10^5 cells/mL in Dulbecco's PBS without calcium or magnesium (Sigma #5652) containing 1% BSA. MnCl2 was added to a final concentration of 300 μM. Test compounds were resuspended in PBS and added to the cell suspension before serial dilution. […] Adherent cells were quantitated using a non-radioactive cell proliferation assay (Promega #G5430) using the instructions provided by the supplier. Plates were allowed to equilibrate overnight at room temperature in a humidified chamber and a Biotek EL312 microplate spectrophotometer was used to measure the difference in absorbance at […]. […]

With `CCOC(=O)CC(NC(=O)CNC(=O)CCCNC(=N)N)c1cccnc1` (racemic) [Example 3-ethyl ester, (±) ethyl β-[[2-[[4-[(aminoiminomethyl)amino]-1-oxobutyl]amino]-1-oxoethyl]amino]-3-pyridinepropanoate], the pIC50 in experiment [1] is 5.85; in experiment [2], 6.01.
Turning to `N=C(N)NCCCCC(=O)NCC(=O)NC(CC(=O)O)c1cccnc1` (stereo not drawn) [Example 1, β-[[2-[[5-[(aminoiminomethyl)amino]-1-oxopentyl]amino]-1-oxoethyl]amino]-3-pyridinepropanoic acid, bistrifluoroacetate salt], the pIC50 was 7.39 in experiment [1] and 7.52 with A3827 cells.
In the case of `N=C(N)NCCCCC(=O)N1CCC[C@H]1C(=O)N[C@@H](CC(=O)O)c1cccnc1` [Example 2, βS-[[[1-[5-[(aminoiminomethyl)amino]-1-oxopentyl]pyrrolidin-2-yl]carbonyl]amino-3-pyridinepropanoic acid, bistrifluoroacetate salt], the pIC50 in experiment [2] was 6.85.

(Values after patent US5681820A, “Guanidinoalkyl glycine β-amino acids useful for inhibiting tumor metastasis” (G. D. Searle & Co., priority 1995, dated 1997).)
